According to ChEMBL document CHEMBL4177614, “Development of a microarray-based assay for efficient testing of new HSP70/DnaK inhibitors” (Bioorg Med Chem, 2017):
Activity calls are given as the source filed them. The rule behind the calls is not given here.

Key:
[1] = Displacement of Cy5-labelled (position-4) ATP from human HSP70 expressed in Escherichia coli BL21(DE3) after 16 hrs by microarray assay
[2] = organism: Homo sapiens; test: Binding affinity to human HSP70 expressed in Escherichia coli BL21(DE3) at 100 uM after 16 hrs microarray assay
[3] = Displacement of Cy5-labelled (position-4) ATP from Mycobacterium tuberculosis HSP70 expressed in Escherichia coli BL21(DE3) after 16 hrs by microarray assay

| SMILES | EC50 [1] | Kd [1] | Kd [3] | other results |
| --- | --- | --- | --- | --- |
| COc1ccc(-c2c(OC)c(O)c(-c3ccc(O)cc3)c(O)c2OC)cc1 | 29 µM | – | – | – |
| CC[N+]1=C(/C=C/C=C/C=C2/N(CCCCCC(=O)NCCCCCCNP(=O)(O)OP(=O)(O)OP(=O)(O)OC[C@H]3O[C@@H](n4cnc5c(N)ncnc54)[C@H](O)[C@@H]3O)c3ccc(S(=O)(=O)O)cc3C2(C)C)C(C)(C)c2cc(S(=O)(=O)[O-])ccc21 | – | – | – | Activity [2]: inactive |
| CC[N+]1=C(/C=C/C=C/C=C2/N(CCCCCC(=O)NCCCCCCNc3nc4c(N)ncnc4n3[C@@H]3O[C@H](COP(=O)(O)OP(=O)(O)OP(=O)(O)O)[C@@H](O)[C@H]3O)c3ccc(S(=O)(=O)O)cc3C2(C)C)C(C)(C)c2cc(S(=O)(=O)[O-])ccc21 | – | 2.3 µM | – | – |
| CC[N+]1=C(/C=C/C=C/C=C2/N(CCCCCC(=O)NCCCCCCNc3ncnc4c3ncn4[C@@H]3O[C@H](COP(=O)(O)OP(=O)(O)OP(=O)(O)O)[C@@H](O)[C@H]3O)c3ccc(S(=O)(=O)O)cc3C2(C)C)C(C)(C)c2cc(S(=O)(=O)[O-])ccc21 | 0.484 µM | – | 30.6 µM | – |
| COc1ccc(-c2c(O)c(O)c(-c3ccc(OC)cc3)c(OC)c2OC)cc1 | 49 µM | – | – | – |
| Nc1ncnc2c1ncn2[C@@H]1O[C@H](COP(=O)(O)OP(=O)(O)OP(=O)(O)O)[C@@H](O)[C@H]1O [ADENOSINE TRIPHOSPHATE] | 0.001 µM | 0.037 µM | 0.037 µM | EC50 [3]: 0.001 µM |
